Measurements taken from PMC7549094 (Journal of Medicinal Chemistry, 2020).
≈ marks a conversion by molar mass, not a printed value. Where two headings read alike, the source gives them in different places.

Legend:
[1] = target: wild-type (PSMB4^WT) L. tarentolae proteasome (Leishmania tarentolae, UniProt A0A640KTY7+A0A640KW57); assay: chymotrypsin-like activity of purified wild-type L. tarentolae proteasome; format: biochemical; conditions: n = 3 technical replicates
[2] = microsomal extraction ratio, 1 h incubation in microsomes
[3] = microsomal extraction ratio, 1 h incubation in microsomes; remark: listed apart in the source
[4] = microsomal extraction ratio, 1 h incubation in microsomes; remark: listed apart in the source
[5] = high-throughput solubility pH 6.8; format: physicochemical; conditions: high-throughput assay format, read-out: HT sol. pH 6.8
[6] = tested on: intramacrophage L. donovani amastigotes; assay: L. donovani amastigote proliferation within primary mouse macrophages; format: cell-based; conditions: Leishmania donovani, Macrophage
[7] = target: T1, purified L. donovani proteasome (Leishmania donovani, UniProt A0A3Q8IIY4+A0A3S7XA80); assay: chymotrypsin-like activity of purified L. donovani proteasome; format: biochemical; conditions: half-maximum inhibition of chymotrypsin-like activity of purified L. donovani proteasome; mean, n = 4 technical replicates
T1 sequence (A0A3Q8IIY4 100-302): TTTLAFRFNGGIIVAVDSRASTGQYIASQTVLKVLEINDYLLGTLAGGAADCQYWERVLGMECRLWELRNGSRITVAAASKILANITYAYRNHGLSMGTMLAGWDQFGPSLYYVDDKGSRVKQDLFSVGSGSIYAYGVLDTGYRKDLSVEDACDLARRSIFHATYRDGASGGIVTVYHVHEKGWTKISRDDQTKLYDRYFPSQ
T1 sequence (A0A3S7XA80 1-206): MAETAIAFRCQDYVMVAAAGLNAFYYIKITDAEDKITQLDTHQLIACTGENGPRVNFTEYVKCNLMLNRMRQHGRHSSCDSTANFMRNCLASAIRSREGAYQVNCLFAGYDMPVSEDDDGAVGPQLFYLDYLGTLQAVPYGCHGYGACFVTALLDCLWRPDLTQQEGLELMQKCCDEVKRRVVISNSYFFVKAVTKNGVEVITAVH

[8] = microsomal extraction ratio, 1 h incubation in microsomes; remark: listed apart in the source
[9] = metabolite profile in mouse hepatocytes; format: in vitro ADME; conditions: 10 μM of 1 for 4 h, UV 250 nm, normalized to largest peak
[10] = mouse plasma; oral administration of 1; dose-normalized AUC
Description: In Vivo PK Studies in Mice.
(§1) The solution was filtered using a 0.45 m syringe filter before dosing. Two male Balb/c mice were administered 1 intravenously via the lateral tail
(§2) vein at 5 mg/kg with a dose volume of 2.0 mL/kg. 1 was also formulated in a suspension of 0.5%
(§3) methylcellulose with 0.5% Tween 80 (0.5% MC/0.5% Tw80) in water at 2.5 mg/mL. A group of mice
(§4) (n=3) were administered 1 orally via gavage at 20 mg/kg with a dose volume of 8.0 mL/kg.
(§5) The mouse blood samples were centrifuged to separate plasma and the plasma samples were frozen at -
In Vivo PK Studies in Rats.
Two male Wistar rats were administered
(§6) 1 intravenously via the lateral tail vein at 3 mg/kg with a dose volume of 1.0 mL/kg. 1 was also formulated
(§7) in a suspension of 0.5% methylcellulose with 0.5% Tween 80 (0.5% MC/0.5% Tw80) in water at 2.0
(§8) mg/mL. The second group of rats (n=3) were administered 1 orally via gavage at 10 mg/kg in suspension
(§9) with a dose volume of 5.0 mL/kg. Six blood samples of 100 μL each were collected serially from each
(§10) animal via the saphenous vein up to 24 hours after dosing. The rat blood samples were centrifuged to
(§11) separate plasma and the plasma samples were frozen at -20°C until analysis.
In Vivo PK Studies in Dogs.
(§12) The solution was filtered using a 0.45 m syringe filter before dosing. Three male Beagle dogs were administered 1 intravenously via saphenous
(§13) vein at 0.3 mg/kg with a dose volume of 0.1 mL/kg. 1 was also formulated in a suspension of 0.5%
(§14) methylcellulose with 0.5% Tween 80 (0.5%MC/0.5% Tween 80) in water at 1.0 mg/mL. The second
(§15) group of male dogs (n=2) were administered 1- orally via gavage at 1.0 mg/kg with a dose volume of 1.0
(§16) mL/kg. Seven blood samples of 250 µL each were collected serially from each animal via the jugular vein
(§17) The dog blood samples were centrifuged to separate plasma and the plasma
(§18) samples were frozen at -20 °C until analysis.

[11] = metabolite profile in dog hepatocytes; format: in vitro ADME; conditions: 10 μM of 1 for 4 h, UV 250 nm, normalized to largest peak
[12] = metabolite profile in rat hepatocytes; format: in vitro ADME; conditions: 10 μM of 1 for 4 h, UV 250 nm, normalized to largest peak
[13] = metabolite profile in human hepatocytes; format: in vitro ADME; conditions: 10 μM of 1 for 4 h, UV 250 nm, normalized to largest peak
[14] = pharmacokinetics, summary across preclinical species; format: in vivo, rat, dog, cynomolgus monkey; conditions: mouse, rat, and monkey plasma; single oral dose of 1
[15] = pharmacokinetics in cynomolgus monkey; format: in vivo; conditions: monkey plasma; oral administration of 1; dose-normalized AUC
Description: In Vivo Intravenous PK Study in Non-human Primates. The IV PK study in non-human primates was carried out at Covance research facility in Greenfield, Indiana. The research facility is accredited by AAALAC (Association for Assessment and Accreditation of Laboratory Animal Care). The male Cynomolgus monkeys were approximately 4.5 years of age and weighed 4.2 to 5.0 kg. 1 was administered […]
75% polyethylene glycol (PEG300) as described in the earlier section. Doses were administered once by intravenous injection via the saphenous vein at a dose of 0.3 mg/kg with a dosing volume of 0.1 ml/kg.
Clinical observations and food consumption determinations were performed on all animals. Blood samples for PK analysis were collected from all animals via the femoral vein approximately 0.083, 0.25, […]
In Vivo Oral PK Study in Non-human Primates. The PO PK study in non-human primates was conducted at a Novartis facility using Non-naïve male Cynomolgus monkeys weighing 3.8 to 4.0 kg. The monkeys were fasted overnight and fed 2 hours post-dose. 1 was formulated in a suspension of 0.5% […]
gavaged with 5 mL/kg of the suspension for a total dose of 10 mg/kg. The gavage tubing was flushed with 5 mL of water to ensure the gavage tubing was cleared of the formulation. Blood samples for PK analysis were collected from all animals via the saphenous veins approximately 0.25, 0.5, 1, 2, 4, 7, 24, 48, and 72 hours post-dose.

[16] = rat plasma; oral administration of 1; dose-normalized AUC
[17] = metabolite profile in monkey hepatocytes; format: in vitro ADME; conditions: 10 μM of 1 for 4 h, UV 250 nm, normalized to largest peak
[18] = dog plasma; oral administration of 1; dose-normalized AUC
Description: In Vivo PK Studies in Mice.
as §1, §2, §3, §4, §5
In Vivo PK Studies in Rats.
Two male Wistar rats were administered
as §6, §7, §8, §9, §10, §11
In Vivo PK Studies in Dogs.
as §12, §13, §14, §15, §16, §17, §18

wild-type (PSMB4^WT) L. tarentolae proteasome, sequence (A0A640KW57 100-302): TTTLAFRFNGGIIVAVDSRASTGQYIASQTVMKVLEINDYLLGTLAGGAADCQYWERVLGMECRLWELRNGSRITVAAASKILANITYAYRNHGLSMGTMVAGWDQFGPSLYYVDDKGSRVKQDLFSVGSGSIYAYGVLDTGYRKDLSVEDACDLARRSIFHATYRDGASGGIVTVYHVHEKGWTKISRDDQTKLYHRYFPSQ
wild-type (PSMB4^WT) L. tarentolae proteasome, sequence (A0A640KTY7 1-206): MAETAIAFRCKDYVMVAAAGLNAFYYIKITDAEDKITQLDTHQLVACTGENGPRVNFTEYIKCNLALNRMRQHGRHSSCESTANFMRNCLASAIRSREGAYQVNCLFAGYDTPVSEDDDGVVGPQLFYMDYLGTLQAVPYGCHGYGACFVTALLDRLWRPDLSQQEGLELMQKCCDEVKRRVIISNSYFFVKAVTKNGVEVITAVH

SMILES	ER dog [3]	ER human [4]	solubility kinetic [5] [µM]	EC50 [6] [nM]	IC50 [7] [nM]	metabolite exposure relative to 1 [10] [%]	abundance dog [11]	abundance rat [12]	abundance human [13]	metabolite exposure relative to 1 [14]	metabolite exposure relative to 1 [15] [%]	metabolite exposure relative to 1 [16] [%]	abundance monkey [17]	other results
CC(C)C[C@H](NC(=O)[C@H](Cc1ccccc1)NC(=O)c1cnccn1)B(O)O [Bortezomib, bortezomib, reference compound]	–	–	–	–	–	–	–	–	–	–	–	–	–	IC50 [1]: 4 nM
Cc1nc(C)c(C(=O)Nc2ccc(F)c(-c3nc4ncc(-c5ccccn5)cn4n3)c2)o1 [compound 2]	0.46	0.3	–	–	–	–	–	–	–	–	–	–	–	ER rat [2]: < 0.27
Cc1nc(C)c(C(=O)Nc2ccc(F)c(-c3nc4ncc(-c5ncccc5C(F)F)cn4n3)c2)o1 [compound 3]	0.57	0.55	21 (≈ 10.1 µg/mL)	110	60	–	–	–	–	–	–	–	–	ER rat [2]: < 0.18; ER mouse [8]: 0.51
Cc1nc(C)c(C(=O)Nc2ccc(F)c(-c3nc4ncc(-c5ncccc5Cl)cn4n3)c2)o1 [compound 4]	–	–	7 (≈ 3.25 µg/mL)	50	100	–	–	–	–	–	–	–	–	–
COc1cccnc1-c1cnc2nc(-c3cc(NC(=O)c4oc(C)nc4C)ccc3F)nn2c1 [compound 5]	0.56	< 0.21	7 (≈ 3.22 µg/mL)	70	–	–	–	–	–	–	–	–	–	ER mouse [8]: 0.4
Cc1nc(C)c(C(=O)Nc2ccc(F)c(-c3nc4ncc(-c5ncccc5CO)cn4n3)c2)o1 [compound 6]	–	–	–	500	70	1.5	+ (+ ≤25%)	+ (+ ≤25%)	+ (+ ≤25%)	less than 10%	1.7	1.5	+ (+ ≤25%)	abundance mouse [9]: + (+ ≤25%)
Cc1nc(CO)c(C(=O)Nc2ccc(F)c(-c3nc4ncc(-c5ncccc5C)cn4n3)c2)o1 [compound 7]	–	–	–	–	–	4.5	+ (+ ≤25%)	+ (+ ≤25%)	+ (+ ≤25%)	5–17%	11	17	+ (+ ≤25%)	abundance mouse [9]: + (+ ≤25%)
Cc1cccnc1-c1cnc2nc(-c3cc(NC(=O)c4oc(CO)nc4C)ccc3F)nn2c1 [compound 8]	–	–	–	–	–	0.2	++ (++ ≤ 75%>25%)	+ (+ ≤25%)	+ (+ ≤25%)	0.2–5%	5.1	1.5	+ (+ ≤25%)	metabolite exposure relative to 1 [18]: 120%
